Assay results from paper PMC12494099, “Discovery and Characterization of Novel IKZF1/3 Glue Degraders against Multiple Hematological Cancer Cell Lines” (Oncology Research, 2025).

Legend:
IKZF2 [1] = biological target: T1, IKZF2 (Homo sapiens, UniProt Q9UKS7); experiment: Immunoblot analysis of endogenous protein; assay type: cell-based; design: endogenous in cells; host or cells: NCI-H929 and MV-4-11; settings: NCI-H929 and MV-4-11 cells
Method: Cells (NCI-H929 and MV-4-11) were plated into 6-well plates. They were then treated with different concentrations (0, 0.01, 0.1, 1, 10 μM) of the compounds (MGD-A7, MGD-C9) or the designated time periods. Afterward, the cells were washed with phosphate-buffered saline (PBS, pH = 7.2–7.4, 1×). Next, they were lysed using RIPA buffer (#R0278-500ML, Sigma-Aldrich, MO, USA), and the cell lysates were precisely measured. Following this, the total protein lysates underwent 10% sodium dodecyl sulfate-polyacrylamide gel electrophoresis (SDS-PAGE). This method efficiently separated the proteins based on their molecular weights. Subsequently, the separated proteins were transferred onto a nitrocellulose membrane (#HATF00010, […], Madison, WI, USA). The membranes were then successively incubated with the indicated primary antibodies. […] The chemiluminescent signal was detected, and membrane images were captured with an Imaging system (Bio-Rad, Hercules, CA, USA). ImageJ analysis software (V1.8.0.112, National Institutes of Health, NIH, Bethesda, MD, USA) was employed to analyze the intensity of protein bands, aiming to quantify the relative expression levels of the target proteins. The half-maximal degradation concentration (DC50) value, which indicates the concentrations of test compounds showing 50% protein degradation efficacy, was calculated using GraphPad Prism 8.0.

IKZF2 [2] = biological target: T1, IKZF2; experiment: MS-based quantitative proteomics in NCI-H929 cells; assay type: cell-based; design: endogenous in cells; host or cells: NCI-H929; settings: NCI-H929, 10 μM, 4 h; not notably downregulated
Method: NCI-H929 cells were treated with either 10 μM DMSO or 10 μM MGD-C9 for 4 h. Post-treatment, the cells were washed with PBS (pH = 7.2–7.4, 1×) and then lysed in 8M Urea (UA) (comprising 8M urea, 100 mM Tris-HCl, pH = 8.0). Subsequently, the cell lysate was subjected to centrifugation on a high-speed freezing microcentrifuge (#CF1524R; SCILOGEX, Meriden, CT, USA) at […], and the supernatant was collected. Subsequently, the collected supernatant was treated with 10 mM tris (2-carboxyethyl) phosphine hydrochloride (TCEP) to reduce it for 30 min. Following this, cysteine alkylation was performed using 50 mM 2-chloroacetamide (CAA) for an additional 30 min. The denatured proteins were then digested with trypsin (1 μg/μL) at an enzyme-to-protein ratio of 1:50 and incubated at 37°C overnight. […]
The peptide mixtures were analyzed using an EASY-nLC 1200 liquid chromatography system (Thermo Fisher Scientific, WLM, MA, USA) equipped with a custom-made 15 cm C18 column (150 μm ID, 1.9 μm particle size, 100 Å pore size). […] The peptide mixtures were then analyzed using a Q Exactive HF mass spectrometer (Thermo Fisher Scientific). […]
Label-free MS raw data were processed using MaxQuant (v2.4) against the UniProt Human database (https://www.uniprot.org/, downloaded May 2024; 20,434 entries). […] Protein groups output by MaxQuant were further analyzed in R (v4.2.1). […]

T1 sequence (Q96SW2 whole entry partner): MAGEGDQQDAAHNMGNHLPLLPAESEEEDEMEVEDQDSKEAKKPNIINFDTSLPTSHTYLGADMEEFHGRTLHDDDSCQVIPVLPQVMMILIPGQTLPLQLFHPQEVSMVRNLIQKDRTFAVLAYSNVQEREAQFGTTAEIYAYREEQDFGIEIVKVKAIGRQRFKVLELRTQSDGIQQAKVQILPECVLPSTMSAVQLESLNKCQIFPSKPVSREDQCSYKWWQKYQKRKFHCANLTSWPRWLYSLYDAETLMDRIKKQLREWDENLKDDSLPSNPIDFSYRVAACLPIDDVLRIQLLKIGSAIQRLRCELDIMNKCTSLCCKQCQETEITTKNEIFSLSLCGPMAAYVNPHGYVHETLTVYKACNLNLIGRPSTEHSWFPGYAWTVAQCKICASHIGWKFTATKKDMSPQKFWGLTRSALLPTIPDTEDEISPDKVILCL
T1 sequence (Q16531 whole entry partner): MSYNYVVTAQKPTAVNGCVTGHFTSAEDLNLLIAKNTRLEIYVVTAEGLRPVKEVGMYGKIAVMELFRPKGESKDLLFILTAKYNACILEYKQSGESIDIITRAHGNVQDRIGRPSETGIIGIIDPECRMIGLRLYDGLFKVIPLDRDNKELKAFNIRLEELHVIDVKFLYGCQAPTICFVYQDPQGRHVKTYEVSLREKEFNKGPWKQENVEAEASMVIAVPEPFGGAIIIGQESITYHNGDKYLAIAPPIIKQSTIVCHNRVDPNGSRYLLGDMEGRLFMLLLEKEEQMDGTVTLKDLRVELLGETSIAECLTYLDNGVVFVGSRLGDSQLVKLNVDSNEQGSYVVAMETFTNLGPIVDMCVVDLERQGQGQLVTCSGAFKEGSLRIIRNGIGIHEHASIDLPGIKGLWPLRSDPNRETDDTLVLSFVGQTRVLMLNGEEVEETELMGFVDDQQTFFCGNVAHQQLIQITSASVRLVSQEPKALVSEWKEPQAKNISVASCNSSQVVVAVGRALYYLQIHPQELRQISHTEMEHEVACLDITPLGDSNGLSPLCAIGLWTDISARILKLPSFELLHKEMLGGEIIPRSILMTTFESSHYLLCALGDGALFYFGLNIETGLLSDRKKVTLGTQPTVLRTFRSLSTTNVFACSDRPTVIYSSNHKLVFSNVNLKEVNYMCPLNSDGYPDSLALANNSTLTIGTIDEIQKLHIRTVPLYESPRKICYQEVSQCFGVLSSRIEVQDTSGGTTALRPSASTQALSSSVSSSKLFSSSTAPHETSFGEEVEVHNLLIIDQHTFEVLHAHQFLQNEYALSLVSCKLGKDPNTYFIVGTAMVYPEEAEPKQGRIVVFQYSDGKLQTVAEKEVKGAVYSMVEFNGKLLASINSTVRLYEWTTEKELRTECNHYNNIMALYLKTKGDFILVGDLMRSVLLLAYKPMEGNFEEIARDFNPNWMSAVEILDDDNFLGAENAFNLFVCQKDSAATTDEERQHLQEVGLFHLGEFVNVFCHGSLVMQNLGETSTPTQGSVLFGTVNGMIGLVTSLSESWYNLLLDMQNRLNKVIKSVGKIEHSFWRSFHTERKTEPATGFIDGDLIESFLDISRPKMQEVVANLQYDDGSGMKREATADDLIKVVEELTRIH
T1 sequence (Q9UKS7 whole entry): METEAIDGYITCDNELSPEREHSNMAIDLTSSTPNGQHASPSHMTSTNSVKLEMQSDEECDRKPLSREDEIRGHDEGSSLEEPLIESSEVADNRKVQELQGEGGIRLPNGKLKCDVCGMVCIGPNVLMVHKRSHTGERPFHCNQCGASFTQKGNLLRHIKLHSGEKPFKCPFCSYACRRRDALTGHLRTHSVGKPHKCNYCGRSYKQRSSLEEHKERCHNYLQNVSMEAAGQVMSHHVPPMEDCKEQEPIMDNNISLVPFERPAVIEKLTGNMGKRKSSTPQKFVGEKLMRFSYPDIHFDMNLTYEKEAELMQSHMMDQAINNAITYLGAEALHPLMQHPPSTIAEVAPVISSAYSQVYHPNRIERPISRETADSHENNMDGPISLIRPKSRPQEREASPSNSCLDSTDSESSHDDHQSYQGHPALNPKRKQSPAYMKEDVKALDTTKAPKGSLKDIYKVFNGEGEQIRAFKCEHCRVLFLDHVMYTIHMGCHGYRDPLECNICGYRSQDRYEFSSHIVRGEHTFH

CN1CCN(Cc2cccc(C(=O)NC3CCC(=O)NC3=O)c2F)C(=O)C1 (stereo not drawn) [MGD-C9, N-(2,6-dioxopiperidin-3-yl)-2-fluoro-3-((4-methyl-2-oxopiperazin-1-yl)methyl)benzamide]
degradation on IKZF2 (IKZF2 [1]): minimal degradation | absolute [log2(fold change)] of IKZF2 (IKZF2 [2]): less than 1

CN1CCN(Cc2cccc(C(=O)NC3CCC(=O)NC3=O)c2)CC1 (stereo not drawn) [MGD-A7, N-(2,6-dioxopiperidin-3-yl)-3-((4-methylpiperazin-1-yl)methyl)benzamide]
degradation on IKZF2 (IKZF2 [1]): minimal degradation
